Marks after values point to notes of the source that are not given here.
Assays:
male Wister rats [1] = experiment: Effect on triglyceride levels in high fructose diet rats; type: in vivo, Wistar rats; settings: for Triglycerides % of control: actual means; for Serum Triglycerides LSMEAN: least squares mean; for Triglycerides: oral gavage, mean ± SD
Description: The effect of the DHA ethyl ester (DHA-EE) produced according to the method of Example 2 on triglyceride levels was investigated using male Wister rats. The DHA-EE used in this example contained DHA at about 93.6% (wt/wt) of the total fatty acid content of the dosage form. The effect of purified DHA-EE was compared to two different DHA-containing products: DHASCO-T® (Martek Bioscience Corporation, Columbia, Md.) and Lovaza® (Reliant Pharmaceuticals, Inc., Durham, N.C.). DHASCO-T® comprises approximately 45% DHA and 55% other fatty acids (with substantially no EPA). Lovaza® comprises approximately 41.7% DHA ethyl ester, 51.7% EPA ethyl ester, and 6.4% other fatty acids. The vehicle control comprised corn oil. 84 Wistar rats were randomized into 7 groups of 12 rats each. Each rat was administered orally a high fructose diet for 4-5 weeks to raise triglyceride levels. After 4-5 weeks, rats with a triglyceride level <300 mg/dL were excluded. Then each rat was administered either (a) a vehicle control, (b) DHA ethyl ester (0.6 g/kg/day, 1.3 g/kg/day, 2.5 g/kg/day, or 5.0 g/kg/day), (c) DHASCO-T (5.0 g/kg/day), or (d) Lovaza (5.0 g/kg/day) for 28 days by oral gavage. Diets were controlled for calories, nutrients and levels of vitamin E. Triglyceride levels of the rats were measured at 14 days and 28 days. Triglyceride values shown are averages for each treatment group, presented as actual mean values.
The triglyceride results presented below in Table 8 are calculated from the same data set as in Table 7. Triglyceride values shown in Table 8 are averages for each treatment group, presented as least squares mean values.

male Wister rats [2] = experiment: Effect on total cholesterol levels in rats; type: in vivo, Wistar rats; settings: for Serum Cholesterol % of control: actual means; for Serum Cholesterol LSMEAN: least squares mean; for Serum Cholesterol: mean ± SD
Method: The effect of the DHA ethyl ester of Example 2 on cholesterol levels was investigated using male Wister rats, and was compared to DHASCO-T® and Lovaza®. The rats were administered either (a) a vehicle control, (b) DHA ethyl ester (0.6 g/kg/day, 1.3 g/kg/day, 2.5 g/kg/day, or 5.0 g/kg/day), (c) DHASCO-T (5.0 g/kg/day), or (d) Lovaza (5.0 g/kg/day) for 28 days. Cholesterol levels, i.e., total cholesterol, of the rats were measured at 14 days and 28 days. Total cholesterol values shown are averages for each treatment group, i.e., actual mean values.
The cholesterol results presented below in Table 10 are calculated from the same data set as in Table 9. Cholesterol level values shown in Table 10 are averages for each treatment group, presented as least squares mean values.

[3] = rat, in vivo
Description: The plasma DHA fatty acid area percent and plasma EPA fatty acid area percent were determine in the rats at day 1 and day 29 (post necropsy).

[4] = day 14, 0.6 g/kg/day fatty acid
[5] = day 14, 1.3 g/kg/day fatty acid
[6] = day 14, 2.5 g/kg/day fatty acid
[7] = day 14, 5.0 g/kg/day fatty acid
[8] = day 28, 0.6 g/kg/day fatty acid
[9] = day 28, 1.3 g/kg/day fatty acid
[10] = day 28, 2.5 g/kg/day fatty acid
[11] = day 28, 5.0 g/kg/day fatty acid

## CC/C=C\C/C=C\C/C=C\C/C=C\C/C=C\C/C=C\CCC(=O)OCC [DHA-EE, ethyl docosahexaenoate]
Male Wister rats [1]; 14 days, lowest dosage level (0.6 g/kg/day)
  triglyceride levels: reduces triglyceride levels
Male Wister rats [1]; [4]
  Serum Triglycerides % of control (LSMEAN): 65%
  Triglycerides % of control: 67%
  Serum Triglycerides LSMEAN: 168.4† mg/dL
  Triglycerides: 176.5 ± 96.4 mg/dL
Male Wister rats [1]; [5]
  Serum Triglycerides % of control (LSMEAN): 67%
  Triglycerides % of control: 66%
  Serum Triglycerides LSMEAN: 173.6† mg/dL
  Triglycerides: 175.2 ± 50.6 mg/dL
Male Wister rats [1]; [6]
  Serum Triglycerides % of control (LSMEAN): 47%
  Triglycerides % of control: 44%
  Serum Triglycerides LSMEAN: 120.2† mg/dL
  Triglycerides: 115.5 ± 60.9 mg/dL
Male Wister rats [1]; [7]
  Serum Triglycerides % of control (LSMEAN): 43%
  Triglycerides % of control: 37%
  Serum Triglycerides LSMEAN: 110.7† mg/dL
  Triglycerides: 97.6 ± 47.8 mg/dL
Male Wister rats [1]; day 28, 0.6 g DHA-EE, DHASCO-T 5.0 g/kg/day
  triglyceride levels vs control: not significantly lower than control
Male Wister rats [1]; [8]
  Serum Triglycerides % of control (LSMEAN): 93%
  Triglycerides % of control: 95%
  Serum Triglycerides LSMEAN: 174.5 mg/dL
  Triglycerides: 182.7 ± 86.9 mg/dL
Male Wister rats [1]; [9]
  Serum Triglycerides % of control (LSMEAN): 60%
  Triglycerides % of control: 60%
  Serum Triglycerides LSMEAN: 113.1† mg/dL
  Triglycerides: 114.7 ± 37.2 mg/dL
Male Wister rats [1]; [10]
  Serum Triglycerides % of control (LSMEAN): 60%
  Triglycerides % of control: 56%
  Serum Triglycerides LSMEAN: 112.6† mg/dL
  Triglycerides: 107.9 ± 58.4 mg/dL
Male Wister rats [1]; [11]
  Serum Triglycerides % of control (LSMEAN): 47%
  Triglycerides % of control: 41%
  Serum Triglycerides LSMEAN: 87.6† mg/dL
  Triglycerides: 78.9 ± 46.5 mg/dL
Male Wister rats [2]; by 14 days, lowest dosage level
  cholesterol levels: reduces cholesterol levels
Male Wister rats [2]; [4]
  Serum Cholesterol % of control (LSMEAN): 80%
  Serum Cholesterol % of control: 79%
  Serum Cholesterol LSMEAN: 72.4 mg/dL
  Serum Cholesterol: 72.2 ± 17.7 mg/dL
Male Wister rats [2]; [5]
  Serum Cholesterol % of control (LSMEAN): 82%
  Serum Cholesterol % of control: 82%
  Serum Cholesterol LSMEAN: 74.6 mg/dL
  Serum Cholesterol: 75.0 ± 24.0 mg/dL
Male Wister rats [2]; [6]
  Serum Cholesterol % of control (LSMEAN): 85%
  Serum Cholesterol % of control: 85%
  Serum Cholesterol LSMEAN: 77.4 mg/dL
  Serum Cholesterol: 77.6 ± 23.1 mg/dL
Male Wister rats [2]; [7]
  Serum Cholesterol % of control (LSMEAN): 75%
  Serum Cholesterol % of control: 74%
  Serum Cholesterol LSMEAN: 67.8 mg/dL
  Serum Cholesterol: 67.1 ± 17.9 mg/dL
Male Wister rats [2]; [8]
  Serum Cholesterol % of control (LSMEAN): 80%
  Serum Cholesterol % of control: 80%
  Serum Cholesterol LSMEAN: 80.6 mg/dL
  Serum Cholesterol: 80.3 ± 21.8 mg/dL
Male Wister rats [2]; [9]
  Serum Cholesterol % of control (LSMEAN): 62%
  Serum Cholesterol % of control: 62%
  Serum Cholesterol LSMEAN: 61.6† mg/dL
  Serum Cholesterol: 62.0 ± 16.0 mg/dL
Male Wister rats [2]; [10]
  Serum Cholesterol % of control (LSMEAN): 72%
  Serum Cholesterol % of control: 72%
  Serum Cholesterol LSMEAN: 71.3† mg/dL
  Serum Cholesterol: 71.5 ± 17.8 mg/dL
Male Wister rats [2]; [11]
  Serum Cholesterol % of control (LSMEAN): 60%
  Serum Cholesterol % of control: 60%
  Serum Cholesterol LSMEAN: 60.9† mg/dL
  Serum Cholesterol: 60.2 ± 19.3 mg/dL
[3]
  plasma DHA fatty acid area percent: correlates with increasing dosing of DHA
  plasma EPA fatty acid area percent: does not increase in rats administered DHA-EE or DHASCO® to the same extent that it is increased in Lovaza®

Source: patent publication US20110082205A1, “Docosahexaenoic Acid Gel Caps” (priority 2009, published 2011)
